pIC50: −log10 of the molar value.
Legend:
AMPA receptors = assay: AMPA receptor binding (Honore et al.); settings: Table 1
[1] = target: kainate site (non-NMDA receptor); assay: kainate site binding (London and Coyle); settings: Table 1
[2] = target: T1, glycine site of the NMDA receptor (Rattus norvegicus, UniProt P35439); assay: glycine site of NMDA receptor binding (Jones et al.); settings: Table 1
T1 construct: from tissue

mice = assay: maximal electroshock time course in mice, with and without probenecid pretreatment; assay type: in vivo
Protocol: FIG. 1 plots maximal electroshock time course with Compound 1 of the invention, with and without probenecid pretreatment in mice.
The graph is the percent of mice protected versus the time in minutes. The solid circle (.circle-solid.) is the compound from Example 1. In a separate experiment the solid square (.box-solid.) the compound from Example 1 (10 mg/kg, IV) was given to mice (n=5) pretreated with probenecid 30 minutes before the compound.

pIC50 (AMPA receptors)	IC50 KA [1] [nM]	pIC50 [2]	Compound	effect of probenecid pretreatment on protection against maximal electroshock (mice; 10 mg/kg IV, n=5 mice, probenecid 30 minutes before the compound)	protection against maximal electroshock (in words) (mice; 30 mg/kg IV, 5 mice, percent of mice protected versus time plotted in FIG. 1 only)
6.07	1550	6.70	Cc1c([N+](=O)[O-])cc2[nH]c(=O)c(=O)n3c2c1CN(C)C(=O)C3 [Example 1, 6-8-Dimethyl-5-nitro-7,8-dihydro-3H-d,8,10a-triaza-cyclo-hepta[de]naphthalene-1,2,9-trione]	positively modulated by ion transporter substrates such as probenecid	indicative of the in vivo potency
5.35	4900	6.22	Cc1c([N+](=O)[O-])cc2[nH]c(=O)c(=O)n3c2c1CN(C)C(=O)C3c1ccccc1 (centres unmarked) [Example 2, 6,8-Dimethyl-5-nitro-10-phenyl-7,8-dihdro-3H-3,8,10a-triaza-cyclohepta(de)morphthalene-1,2,9-trione]	–	–

From patent US6063774A, “Tricyclic quinoxaline derivatives as neuroprotective agents” (Warner-Lambert Company, priority 1998, dated 2000)
